From patent US11713320B2, “5-heteroaryl substituted indazole-3-carboxamides and preparation and use thereof” (BioSplice Therapeutics, Inc., priority 2018, dated 2023)
One block for each molecule: values may come before it.

What was measured:
[1] = test system: primary human mesenchymal stem cells (hMSCs); assay: Tenocyte differentiation assay in hMSCs (SCXA staining); type: cell-based; conditions: given for EC50 of >100 μM; not defined in the method
From the text: Representative compounds were screened using primary human mesenchymal stem cells (hMSCs) to determine their ability to induce tenocyte differentiation (process by which tendon is developed).
Human Mesenchymal Stem Cell Culture: Primary human mesenchymal stem cells (hMSCs) were purchased from Lonza (Walkersville, Md.) and expanded in Mesenchymal Stem Cell Growth Media (Lonza). Cells between passage 3 and 6 were used for the experiments.
Cells were fixed using 4% formaldehyde (Electron Microscopy Sciences), and stained with anti-Sclerasis (anti-SCXA) antibodies (Abgent, San Diego, Calif.) [Webb S., et. al., Retinoic acid receptor signaling preserves tendon stem cell characteristics and prevents spontaneous differentiation in vitro, Stem Cell Research & Therapy 2016, 7:45] overnight at 4° C. […] Number of cells positive for SCXA in each well was quantified using the CellInsight CX5. Data was normalized to the average of 12 DMSO treated wells on the same plate using Dotmatics Studies module. The normalized averages (fold change over DMSO) of 3 replicate wells for each compound concentration were calculated. Due to solubility limitations of some of the compounds, values for higher doses were manually corrected and curve fitting and EC50 determinations were performed using Dotmatics Studies.

[2] = test system: Wnt activity (Sp5-Luc reporter, TCF/LEF binding sites) in SW480 colon carcinoma cells; assay: Screening assay for Wnt activity: Sp5-Luc reporter gene assay in SW480 cells; type: cell-based, human; conditions: 36 to 48 hours
From the text: The screening assay for Wnt activity is described as follows. Reporter cell lines can be generated by stably transducing cancer cell lines (e.g., colon cancer) or primary cells (e.g., IEC-6 intestinal cells) with a lentiviral construct that includes a Wnt-responsive promoter driving expression of the firefly luciferase gene.
SW480 colon carcinoma cells were transduced with a lentiviral vector expressing luciferase with a human Sp5 promoter consisting of a sequence of eight TCF/LEF binding sites. SW480 cells stably expressing the Sp5-Luc reporter gene and a hygromycin resistance gene were selected by treatment with 150 μg/mL of hygromycin for 7 days. These stably transduced SW480 cells were expanded in cell culture and used for all further screening activities. […] For Sp5-Luc reporter gene assays, the cells were plated at 4,000 cells/well in 384-well plates with a DMEM medium containing 1% fetal bovine serum, and 1% Penicillin-Streptomycin and incubated for 36 to 48 hours at 37° C. and 5% CO2. Following incubation, 15 μl of BriteLite Plus luminescence reagent (Perkin Elmer) was added to each well of the 384-well assay plates. The plates were placed on an orbital shaker for 2 min and then luminescence was quantified using the Envision (Perkin Elmer) plate reader. Readings were normalized to DMSO only treated cells, and normalized activities were utilized for EC50 calculations using the dose-response log (inhibitor) vs. response variable slope (four parameters) nonlinear regression feature available in GraphPad Prism 5.0 (or Dotmatics).

IL-6 = IL-6 inhibition in LPS-stimulated human PBMCs (HTRF); type: cell-based; conditions: PBMC; for EC50: IL-6, huPBMCs, LPS 50 ng/mL, 22 hours
Procedure: Human Peripheral Blood Mononuclear Cells: Fresh Normal PB MNC (Catalog #PB001, AllCells, Alameda, Calif.) were shipped overnight at 4° C. and resuspended in Roswell Park Memorial Institute (RPMI) 1640 Medium, with GlutaMAX Supplement (Catalog #61870127, ThermoFisher Scientific, Waltham, Mass.) supplemented with 1% Penicillin-Streptomycin (Catalog #15140163, ThermoFisher Scientific, Waltham, Mass.) and 1% fetal bovine serum (FBS) (Catalog #16140089, ThermoFisher Scientific, Waltham, Mass.) assay media.
Compound Screening: Fresh normal human peripheral blood mononuclear cells (huPBMCs) were resuspended in 1% FBS-RPMI assay media with 1% Penicillin-Streptomycin 1% to a cell concentration of 1×10e6 cells/mL. […] 50 ng/mL of Lipopolysaccharides from Escherichia coli 0111:B4 (Catalog #L5293-2ML, Sigma-Aldrich, St. Louis, Mo.) was added after 2 hours and cells were incubated for another 22 hours at 37° C.-5% CO2. After 22 hour incubation, a mixture of anti-IL6 XL665 and anti-IL-6 Cryptate diluted in reconstitution buffer (Catalog #62IL6PEC, Cisbio Inc., Bedford, Mass.) was added to each well. Following incubation for 3 hours at room temperature, Homogeneous Time-Resolved Fluorescence (HTRF) was measured using the Envision (Perkin Elmer, Shelton, Conn.) at 665 nm and […]. The ratio of fluorescence at 665 nm to 620 nm was used as a readout for IL-6 quantification. All samples were processed in duplicate. Readings were normalized to DMSO treated cells and normalized activities were utilized for EC50 calculations. EC50 was determined using software generated by Dotmatics Limited (Windhill Bishops Stortford Herts, UK) using the Levenberg-Marquardt 4 parameter fitting procedure with finite different gradients.

[3] = test system: primary human fibroblasts derived from IPF patients (LL29 cells) treated with TGF-β1; assay: Inhibition of the fibrotic process: αSMA staining in TGF-β1 treated LL29 fibroblasts; type: cell-based; conditions: % cells positive for αSMA, TGF-β1 20 ng/mL, 4 days
Procedure: Representative compounds were screened using primary human fibroblasts (derived from IPF patients) treated with TGF-β1 to determine their ability to inhibit the fibrotic process.
LL29 cells were plated at 1,500 cells/well in 70 μL/well F12 medium supplemented with 1% Fetal Bovine Serum. […] Wells treated with TGF-β1 and containing DMSO were used as positive control, and cells with only DMSO were negative control. […] Following incubation for 4 days, SYTOX green nucleic acid stain (Life Technologies [Thermo Fisher Scientific]) was added to the wells at a final concentration of 1 μM and incubated at room temperature for 30 min.

[4] = test system: SW480 colon carcinoma cells; assay: Cell viability assay (CellTiter-Glo) in SW480 cells; type: cell-based, human; conditions: four days
Procedure: Representative compounds were screened using the assay procedure to assess the effect on cell viability as described below.
SW480 colon carcinoma cells were transduced with a lentiviral vector expressing luciferase with a human Sp5 promoter consisting of a sequence of eight TCF/LEF binding sites. SW480 cells stably expressing the Sp5-Luc reporter gene and a hygromycin resistance gene were selected by treatment with 150 μg/mL of hygromycin for 7 days. These stably transduced SW480 cells were expanded in cell culture and used for all further screening activities.
For the Cell Viability Assays, the cells were plated at 2,000 cells/well in 384-well plates with a DMEM medium containing 1% fetal bovine serum, and 1% Penicillin-Streptomycin and incubated for […] at 37° C. and 5% CO2. Eight replicates of DMSO-treated cells served as controls and cells treated with compound were performed in duplicate.
After incubation, 10 μL of CellTiter-Glo (Promega) was added to each well allowed to incubate for approximately 12 minutes. This reagent “results in cell lysis and generation of a luminescent signal proportional to the amount of ATP present. The amount of ATP is directly proportional to the number of cells present in culture, in agreement with previous reports. The CellTiter-Glo® Assay generates a “glow-type” luminescent signal, produced by the luciferase reaction (Promega.com)”.

Molecule: Cc1ncc(-c2ccc3[nH]nc(C(=O)NC4CCN(CC(C)(C)F)CC4)c3c2)n1C [Compound 42, 5-(1,2-Dimethyl-1H-imidazol-5-yl)-N-(1-(2-fluoro-2-methylpropyl)piperidin-4-yl)-1H-indazole-3-carboxamide]
EC50 ([2]; Homo sapiens): 0.507 µM
EC50 (IL-6): > 10 µM
inhibition at 10 µM (IL-6; read-out: percent inhibition at 10 μM): 10.4%
EC50 ([3]; Homo sapiens, Fibroblast, 96 h): 1.36 µM
EC50 ([4]; Homo sapiens, 96 h): > 10 µM

Molecule: C[C@H]1C[C@H](NC(=O)c2n[nH]c3ccc(-c4cnn(C)c4)cc23)CCN1CC(C)(C)F [Compound 44, N-((2S,4R)-1-(2-fluoro-2-methylpropyl)-2-methylpiperidin-4-yl)-5-(1-methyl-1H-pyrazol-4-yl)-1H-indazole-3-carboxamide]
EC50 ([2]; Homo sapiens): 0.279 µM
EC50 (IL-6): 1.03 µM
EC50 ([3]; Homo sapiens, Fibroblast, 96 h): 0.199 µM
EC50 ([4]; Homo sapiens, 96 h): 1.52 µM

Molecule: O=C(Nc1ccc(F)cc1)c1n[nH]c2ccc(-c3cnc4n3CCNC4)cc12 [Compound 52, N-(4-Fluorophenyl)-5-(5,6,7,8-tetrahydroimidazo[1,2-a]pyrazin-3-yl)-1H-indazole-3-carboxamide]
EC50 ([3]; Homo sapiens, Fibroblast, 96 h): 0.54 µM

Molecule: CN1CCC(Oc2cccc(NC(=O)c3n[nH]c4cc(F)c(-c5cnn(C)c5)cc34)c2)CC1 [Compound 151, 6-Fluoro-5-(1-methyl-1H-pyrazol-4-yl)-N-(3-((1-methylpiperidin-4-yl)oxy)phenyl)-1H-indazole-3-carboxamide]
percent value in parentheses beside EC50 >100 [1]: (3.5%)

Molecule: Cn1cc(-c2cc3c(C(=O)Nc4cccc(OCCN5CCCC5)c4)n[nH]c3cc2F)cn1 [Compound 154, 6-Fluoro-5-(1-methyl-1H-pyrazol-4-yl)-N-(3-(2-(pyrrolidin-1-yl)ethoxy)phenyl)-1H-indazole-3-carboxamide]
percent value in parentheses beside EC50 >100 [1]: (21.0%)

The next lines start with results.

percent value in parentheses beside EC50 >100 [1]: (21.2%)
Molecule: 5-(1,2-Dimethyl-1H-imidazol-5-yl)-N-(2-methylthiazol-5-yl)-1H-indazole-3-carboxamide [Compound 139]

EC50 [2]: > 10 µM
EC50 [4]: > 10 µM
Molecule: CC(C)(F)CN1CCC(n2cc(-c3ccc4[nH]nc(C(=O)Nc5ccc(OC(F)F)cc5)c4c3)cn2)CC1 [Compound 61, N-(4-(difluoromethoxy)phenyl)-5-(1-(1-(2-fluoro-2-methylpropyl)piperidin-4-yl)-1H-pyrazol-4-yl)-1H-indazole-3-carboxamide]
EC50 [3]: 0.009 µM

percent value in parentheses beside EC50 >100 [1]: (2.9%)
Molecule: Cc1ncc(-c2ccc3[nH]nc(C(=O)Nc4ccc(OC5CCN(C)CC5)cc4)c3c2)s1 [Compound 82, N-(4-((1-Methylpiperidin-4-yl)oxy)phenyl)-5-(2-methylthiazol-5-yl)-1H-indazole-3-carboxamide]

percent value in parentheses beside EC50 >100 [1]: (33.0%)
Molecule: Cn1cc(-c2cc(F)c3[nH]nc(C(=O)NC4CCN(CC(F)F)CC4)c3c2)cn1 [Compound 101, N-(1-(2,2-Difluoroethyl)piperidin-4-yl)-7-fluoro-5-(1-methyl-1H-pyrazol-4-yl)-1H-indazole-3-carboxamide]

percent value in parentheses beside EC50 >100 [1]: (13.0%)
Molecule: CN1CCC(Oc2ccc(NC(=O)c3n[nH]c4c(F)cc(-c5cnn(C)c5)cc34)cn2)CC1 [Compound 129, 7-Fluoro-5-(1-methyl-1H-pyrazol-4-yl)-N-(6-((1-methylpiperidin-4-yl)oxy)pyridin-3-yl)-1H-indazole-3-carboxamide]

percent value in parentheses beside EC50 >100 [1]: (23.0%)
Molecule: Cc1cc(NC(=O)c2n[nH]c3ccc(-c4cnn(C5CCN(C)CC5)c4)cc23)sn1 [Compound 143, N-(3-Methylisothiazol-5-yl)-5-(1-(1-methylpiperidin-4-yl)-1H-pyrazol-4-yl)-1H-indazole-3-carboxamide]

percent value in parentheses beside EC50 >100 [1]: (36.0%)
Molecule: CN1CCN(c2cccc(NC(=O)c3n[nH]c4cc(F)c(-c5cnn(C)c5)cc34)c2)CC1 [Compound 149, 6-Fluoro-5-(1-methyl-1H-pyrazol-4-yl)-N-(3-(4-methylpiperazin-1-yl)phenyl)-1H-indazole-3-carboxamide]
